In US7538129B2, “Diazonamide A analog” (Board of Regents, The University of Texas System, priority 2005, dated 2009):
“Also recorded” adds a separate entry of the source.

Columns and labels:
[1] = tested on: neutrophils (GR1+ cells) in bone marrow; assay: neutrophil counts in bone marrow; assay type: in vivo, mice; conditions: for neutrophil counts in bone marrow: 5 mg/kg; for neutrophil counts in bone marrow (number of GR1+ cells in one femu): 20 mg/kg, FIG. 5A
Description: In addition to measuring the affect on tumors, the effect of paclitaxel and Compound J on neutrophils in […] and blood were obtained. […] The data are provided as the number of GR1+ cells in one femu.
The details of the protocol for Examples 19 and 20 are as follows: […]

PC-3 xenografts = assay: growth inhibition of PC-3 xenografts; assay type: in vivo, mice; conditions: 20 mg/kg; for inhibition of growth of PC-3 xenografts: FIG. 4B; for % Max T/C / Log10 Tumor Cell Kill: PC3 (prostate), IV
Method: In FIG. 4B, the squares are the control, the dark circles are the data-points for Compound J and the light diamonds are data-points for paclitaxel.
The details of the protocol for Examples 19 and 20 are as follows:
• PC3 prostrate tumor cells and HCT116 colon tumor cells (acquired from the tumor repository Division of Cancer Treatment and Diagnosis (DCTD) of the NCI • Complete RPMI Media • RPMI (Cat# 11875-085, Invitrogen) • 10% Heat-inactivated (30′ 56° C.) Fetal Bovine Serum (Cat# 100-106, Gemini Bio-Products • 2 mM L-glutamine (Cat# 25030-081, Invitrogen) • 0.1 mM MEM Non-Essential Amino Acids Solution (Cat#11140-050, Invitrogen) • 10 U/ml Penicillin/10 μg/ml Streptomycin (Cat#15140-122, Invitrogen) • 1 mM Sodium Pyruvate (Cat#l 1360-070) • Trypsin-EDTA (Cat#25300-054, Invitrogen) • Ca^2+/Mg^2+-free Phosphate Buffered Saline, 5% dextrose in water • Cell Culture Dish 150 mm×25 mm (Cat# 430599, Coming, Inc.) • 10 and 25 ml pipets, standard pipet-aid, p200 and p1000 pipette tips and standard pipetmen • Athymic NCr-nu/nu nude mice at 6-12 weeks of age, either sex (Strain code: 01B74, NCI Frederick Animal Production Program—suppliers include Charles River Labs and Taconic Farms). Female mice of approximately 7 weeks of age were utilized for existing experiments. • Standard 1 cc tuberculin syringe, 30G½ and 25G⅝ needles (Becton Dickinson) • Falcon 5 ml tubes (Cat#352054) • 50 and 15 ml disposable plastic conical tubes (Falcon or similar vendor) • Trypan Blue Solution (0.4%) (Cat#T8154, Sigma) • Hausser phase contrast hemacytometer (Cat# 02-671-54, Fisher) • Ice bucket • Balance for weighing mice (accurate to 0.2 g) • Vernier calipers • Vivarium facility free from known pathogens (nude mice should be housed in isolation from conventional mice if possible—separate rooms or micro-isolator cages equipped with individual air flow; all animal housing, bedding, water should be autoclaved prior to use; standard irradiated mouse chow should be used; animals should be changed out of cages within laminar flow hood; investigators handling mice should be suitably garbed—disposable gown, bonnet, booties, gloves, mask) • AB-5 (Compound J) compound • Ethyl alcohol, 200 proof (Aaper, MFD 041205) • Cremaphor (Cat# C5135, Sigma) • Paclitaxel (Cat#ANP0010, Polymed Therapeutics) Procedure: • 1) Rapidly thaw PC3 or HCT116 cells (if necessary) in 37° C. water bath. Transfer contents to 9ml complete RPMI media. Spin 5′ at 1200 rpm (240 Xg). Discard media and resuspend pellet in 8 ml complete RPMI media. Plate in 100 mm×25 mm cell culture dish in 5% CO2, 37° C. humidified incubator. • 2) Allow to grow for 5-10 days, splitting (aspirate media, wash with 3-5 ml PBS, add 1 ml trypsin-EDTA, incubate 3-5′ at 37° C., add media to desired volume and transfer to multiple plates) 1:8 to 1:10 every 3-4 days as necessary to allow cells to enter phase of logarithmic growth. • 3) When cells are growing well, begin to expand to 150 mm×25 mm dishes. We use 20 ml of media in a 150 mm dish and use 2 ml of trypsin for splitting. When nearly confluent, there should be 2×10^7 cells/150 mm dish. • 4) Plan ahead to time arrival of nu/nu mice such that they can acclimate to animal facility for 1 week prior to injection of tumor cells. […] Plan to inject 10 million cells/mouse and allow for loss of cells/volume during injection process. That is, if 30 mice are to be injected, plan to harvest cells sufficient for at least 35 injections—35×10 million cells=3.5×10^8 cells. In the existing HCT116 experiment, 7.5×10^6 cells were injected per mouse. Five mice per group were utilized for AB-5 treatment and four mice per group were utilized for the control and paclitaxel treatments. In the existing PC3 experiment, 10^7 cells were injected. Six mice per group were utilized for the control treatment and five mice per group were utilized for the AB-5 and paclitaxel treatments. […]

Structure (SMILES)	neutrophil counts in bone marrow [1]	neutrophil counts in bone marrow (number of GR1+ cells in one femu) [1]	neutrophil proliferation or cell counts in vivo ([1]; FIG. 5A legend)	inhibition of growth of PC-3 xenografts (PC-3 xenografts)	% Max T/C (PC-3 xenografts)	Log10 Tumor Cell Kill (PC-3 xenografts)
CC(C)[C@H](O)C(=O)N[C@H]1Cc2ccc3c(c2)[C@]24C5=C(N=C(O5)[C@H](C(C)C)NC1=O)c1ncc(o1)-c1c[nH]c5cccc(c15)-c1cccc2c1NC4O3 (stereo in doubt) [Compound J]	no effect	no effect	no effect	comparable to paclitaxel; also recorded: significantly inhibited tumor growth	0.3%	3.4
CC(=O)O[C@H]1C(=O)[C@@]2(C)[C@H]([C@H](OC(=O)c3ccccc3)[C@]3(O)C[C@H](OC(=O)[C@H](O)[C@@H](NC(=O)c4ccccc4)c4ccccc4)C(C)=C1C3(C)C)[C@]1(OC(C)=O)CO[C@@H]1C[C@@H]2O [paclitaxel, reference compound]	reduction of neutrophil counts	reduction of neutrophil counts; also recorded: significantly lowered	–	significantly inhibited tumor growth	0%	3.4
